Assay results reported in patent US11098040B2, “Compounds and methods of use” (Ferro Therapeutics, Inc., priority 2018, dated 2021).

Columns and labels:
[1] = Whole blood stability, human; assay type: in vitro ADME
Excerpt: (§1) The results of the assay on stability in blood and IC50 values for pancreatic cancer cell line KP4 are given below in Table 24.

[2] = Whole blood stability, mouse; assay type: in vitro ADME
Excerpt: as §1

[3] = system: KP4; assay: Cell viability assay (CellTiter Glo), pancreatic ductal adenocarcinoma KP4; assay type: cell-based, human; details: Homo sapiens, KP-4, 96 h, pancreatic cancer cell line KP4, 96 hours, CellTiter Glo; read-out: IC50 μM KP4
Protocol: (§2) Cell viability assay was performed to assess the potency of the compounds in human cancer cell lines KP4 (pancreatic ductal adenocarcinoma), MiaPaCa-2 (pancreatic carcinoma), AsPC-1 (pancreatic adenocarcinoma, ascites), 143B (osteosarcoma), and SJSA-1 (osteosarcoma). Selected compounds were also assayed in a human breast epithelial cell line MCF-10A, a nontumorigenic cell line as a control to assess differential activity. Cells at a density of 500-5,000 cells/well were seeded in 96-well plates and incubated at 37° C. overnight. A series of 9 different concentrations of compound stocks (500×) were created by 3-fold serial dilution in DMSO. These compounds were further diluted in culture media and then added to cells so that the final DMSO concentration was equal to 0.25% or less. After 96 hours of incubation, 50 μL of CellTiter Glo reagent (Promega) was added to each well and luminescence was measured after 10 minutes using EnVision (PerkinElmer). Compounds titrated from top concentration of up to 30 μM. The select compounds were tested initially from 30 μM as the top concentration in duplicates (range of 4.6 nM-30 μM). […] Luminescence from cells treated with DMSO alone was set as Max and % of inhibition was calculated as follows: Inhibition %=(Max-Sample value)/Max*100. Data was analyzed using XL-fit software (ID Business Solutions Ltd.). IC50, relative IC50, or % of top inhibition was calculated.
as §2, with “in” for “in human”, “line” for “lines”, “adenocarcinoma).” for “adenocarcinoma), MiaPaCa-2 (pancreatic carcinoma), AsPC-1 (pancreatic adenocarcinoma, ascites), 143B (osteosarcoma), and SJSA-1 (osteosarcoma). Selected compounds were also assayed in a human breast epithelial cell line MCF-10A, a nontumorigenic cell line as a control to assess differential activity.”, “1,000-10,000” for “500-5,000”, “All” for “Compounds titrated from top concentration of up to 30 μM. The select”
as §1

Structure (SMILES) | Whole Blood Stability % Remaining at 37° C. Human ([1]; 0 min) | Whole Blood Stability % Remaining at 37° C. Human ([1]; 30 min) | Whole Blood Stability % Remaining at 37° C. Human ([1]; 60 min) | Whole Blood Stability % Remaining at 37° C. Mouse ([2]; 0 min) | Whole Blood Stability % Remaining at 37° C. Mouse ([2]; 30 min) | Whole Blood Stability % Remaining at 37° C. Mouse ([2]; 60 min) | IC50 [3]
COC(=O)[C@H]1Cc2c([nH]c3ccccc23)[C@H](c2ccc(C(=O)N3CCOCC3)cc2)N1C(=O)CCl [Compound 26] | 100.0% | 47.1% | 22.9% | 100.0% | 67.7% | 55.7% | 0.01 to 0.1 µM
COC(=O)[C@H]1Cc2c([nH]c3ccccc23)[C@H](c2ccc(C(=O)NCCN3CCOCC3)cc2)N1C(=O)CCl [Compound 27] | 100.0% | 63.9% | 48.3% | 100.0% | 78.2% | 73.2% | 0.01 to 0.1 µM
COC(=O)[C@H]1Cc2c([nH]c3ccccc23)[C@H](c2ccc(C(=O)N[C@]34CC5C[C@H](C[C@H](C5)C3)C4)cc2)N1C(=O)CCl [Compound 28, Methyl-(1S,3R)-1-(4-(((3R,5R,7R)-adamantan-1-yl)carbamoyl)phenyl)-2-(2-chloroacetyl)-2,3,4,9-tetrahydro-1H-pyrido[3,4-b]indole-3-carboxylate] | 100.0% | 73.4% | 51.6% | 100.0% | 78.3% | 68.9% | < 0.01 µM
COC(=O)[C@H]1Cc2c([nH]c3ccccc23)[C@H](c2ccc(N[C@]34CC5C[C@H](C[C@H](C5)C3)C4)cc2)N1C(=O)CCl [Compound 29] | 100.0% | 67.3% | 49.2% | 100.0% | 61.9% | 51.1% | < 0.01 µM
COC(=O)[C@H]1Cc2c([nH]c3ccccc23)[C@H](c2ccc(S(=O)(=O)N[C@]34C[C@H]5C[C@H](C[C@H](C5)C3)C4)cc2)N1C(=O)/C=C/CCl [Compound 30] | 100.0% | 62.1% | 38.1% | 100.0% | 85.3% | 75.9% | 0.5 to 1 µM
COC(=O)[C@H]1Cc2c([nH]c3ccccc23)[C@H](c2ccc(C(=O)N3CCNCC3)cc2)N1C(=O)CCl [Compound 31] | 100.0% | 49.4% | 32.6% | 100.0% | 90.0% | 75.5% | 0.1 to 0.5 µM
COC(=O)[C@H]1Cc2c([nH]c3ccccc23)[C@H](c2ccc(C(=O)N3CCC(O)CC3)cc2)N1C(=O)CCl [Compound 32] | 100.0% | 0.1% | 0.1% | 100.0% | 0.0% | 0.0% | > 1 µM
